ChEMBL document CHEMBL5579809, “Exploration of bromodomain ligand-linker conjugation sites for efficient CBP/p300 heterobifunctional degrader activity” (Bioorg Med Chem Lett, 2024)
Activity calls are given as the source filed them. The calls are words filed in the database; no cut-off is given here.

How the values were obtained:
[1] = target: T1, Protein cereblon/Histone acetyltransferase p300 (Homo sapiens) (UniProt Q09472+Q96SW2); experiment: PROTAC activity at CRBN/HiBiT-tagged p300 in human HAP1 cells assessed as induction of p300 degradation by measuring degradation rate at 10 nM measured over 24 hrs by luminescence based analysis; assay type: cell-based
[2] = target: T2, Protein cereblon/CREB-binding protein (Homo sapiens) (UniProt Q92793+Q96SW2); experiment: PROTAC activity at CRBN/HiBiT-tagged CBP in human HAP1 cells assessed as induction of CBP degradation by measuring maximal efficacy at 10 nM measured over 24 hrs by luminescence based analysis relative to control; assay type: cell-based
[3] = target: T2, Protein cereblon/CREB-binding protein (Homo sapiens); experiment: PROTAC activity at CRBN/HiBiT-tagged CBP in human HAP1 cells assessed as induction of CBP degradation by measuring maximal efficacy at 0.1 nM measured over 24 hrs by luminescence based analysis relative to control; assay type: cell-based
[4] = target: T1, Protein cereblon/Histone acetyltransferase p300 (Homo sapiens); experiment: PROTAC activity at CRBN/HiBiT-tagged p300 in human HAP1 cells assessed as induction of p300 degradation by measuring maximal efficacy at 1000 nM measured over 24 hrs by luminescence based analysis relative to control; assay type: cell-based
[5] = target: T2, Protein cereblon/CREB-binding protein (Homo sapiens); experiment: PROTAC activity at CRBN/HiBiT-tagged CBP in human HAP1 cells assessed as induction of CBP degradation by measuring maximal efficacy at 1 nM measured over 24 hrs by luminescence based analysis relative to control; assay type: cell-based
[6] = target: T1, Protein cereblon/Histone acetyltransferase p300 (Homo sapiens); experiment: PROTAC activity at CRBN/HiBiT-tagged p300 in human HAP1 cells assessed as total cumulative degradation by measuring AUC at 1 nM measured over 24 hrs by luminescence based analysis; assay type: cell-based
[7] = target: T1, Protein cereblon/Histone acetyltransferase p300 (Homo sapiens); experiment: PROTAC activity at CRBN/HiBiT-tagged p300 in human HAP1 cells assessed as total cumulative degradation by measuring AUC at 10 nM measured over 24 hrs by luminescence based analysis; assay type: cell-based
[8] = target: T2, Protein cereblon/CREB-binding protein (Homo sapiens); experiment: PROTAC activity at CRBN/HiBiT-tagged CBP in human HAP1 cells assessed as total cumulative degradation by measuring AUC at 0.01 nM measured over 24 hrs by luminescence based analysis; assay type: cell-based
[9] = target: T2, Protein cereblon/CREB-binding protein (Homo sapiens); experiment: PROTAC activity at CRBN/HiBiT-tagged CBP in human HAP1 cells assessed as induction of CBP degradation by measuring degradation rate at 10 nM measured over 24 hrs by luminescence based analysis; assay type: cell-based
[10] = target: T2, Protein cereblon/CREB-binding protein (Homo sapiens); experiment: Binding affinity to recombinant CRBN/CBP bromodomain (unknown origin) assessed as ternary complex formation at 10 to 100 nM by Alphascreen-based proximity assay; assay type: protein assay; conditions: dose 10-100 nM
[11] = target: T1, Protein cereblon/Histone acetyltransferase p300 (Homo sapiens); experiment: PROTAC activity at CRBN/HiBiT-tagged p300 in human HAP1 cells assessed as induction of p300 degradation by measuring maximal efficacy at 1 nM measured over 24 hrs by luminescence based analysis relative to control; assay type: cell-based
[12] = target: T2, Protein cereblon/CREB-binding protein (Homo sapiens); experiment: PROTAC activity at CRBN/HiBiT-tagged CBP in human HAP1 cells assessed as total cumulative degradation by measuring AUC at 0.1 nM measured over 24 hrs by luminescence based analysis; assay type: cell-based
[13] = target: T2, Protein cereblon/CREB-binding protein (Homo sapiens); experiment: PROTAC activity at CRBN/HiBiT-tagged CBP in human HAP1 cells assessed as induction of CBP degradation by measuring degradation rate at 1000 nM measured over 24 hrs by luminescence based analysis; assay type: cell-based
[14] = target: T2, Protein cereblon/CREB-binding protein (Homo sapiens); experiment: PROTAC activity at CRBN/HiBiT-tagged CBP in human HAP1 cells assessed as total cumulative degradation by measuring AUC at 1000 nM measured over 24 hrs by luminescence based analysis; assay type: cell-based
[15] = target: T2, Protein cereblon/CREB-binding protein (Homo sapiens); experiment: PROTAC activity at CRBN/HiBiT-tagged CBP in human HAP1 cells assessed as induction of CBP degradation by measuring maximal efficacy at 100 nM measured over 24 hrs by luminescence based analysis relative to control; assay type: cell-based
[16] = target: T2, Protein cereblon/CREB-binding protein (Homo sapiens); experiment: PROTAC activity at CRBN/HiBiT-tagged CBP in human HAP1 cells assessed as induction of CBP degradation by measuring degradation rate at 100 nM measured over 24 hrs by luminescence based analysis; assay type: cell-based
[17] = target: T2, Protein cereblon/CREB-binding protein (Homo sapiens); experiment: PROTAC activity at CRBN/HiBiT-tagged CBP in human HAP1 cells assessed as total cumulative degradation by measuring AUC at 1 nM measured over 24 hrs by luminescence based analysis; assay type: cell-based
[18] = target: T1, Protein cereblon/Histone acetyltransferase p300 (Homo sapiens); experiment: PROTAC activity at CRBN/HiBiT-tagged p300 in human HAP1 cells assessed as induction of p300 degradation by measuring degradation rate at 100 nM measured over 24 hrs by luminescence based analysis; assay type: cell-based
[19] = target: T1, Protein cereblon/Histone acetyltransferase p300 (Homo sapiens); experiment: PROTAC activity at CRBN/HiBiT-tagged p300 in human HAP1 cells assessed as total cumulative degradation by measuring AUC at 0.1 nM measured over 24 hrs by luminescence based analysis; assay type: cell-based
[20] = target: T1, Protein cereblon/Histone acetyltransferase p300 (Homo sapiens); experiment: PROTAC activity at CRBN/HiBiT-tagged p300 in human HAP1 cells assessed as induction of p300 degradation by measuring maximal efficacy at 10 nM measured over 24 hrs by luminescence based analysis relative to control; assay type: cell-based
[21] = target: T1, Protein cereblon/Histone acetyltransferase p300 (Homo sapiens); experiment: Binding affinity to recombinant CRBN/p300 bromodomain (unknown origin) assessed as ternary complex formation at 10 to 100 nM by Alphascreen-based proximity assay; assay type: protein assay; conditions: dose 10-100 nM
[22] = target: T1, Protein cereblon/Histone acetyltransferase p300 (Homo sapiens); experiment: PROTAC activity at CRBN/HiBiT-tagged p300 in human HAP1 cells assessed as total cumulative degradation by measuring AUC at 1000 nM measured over 24 hrs by luminescence based analysis; assay type: cell-based
[23] = target: T2, Protein cereblon/CREB-binding protein (Homo sapiens); experiment: PROTAC activity at CRBN/HiBiT-tagged CBP in human HAP1 cells assessed as total cumulative degradation by measuring AUC at 100 nM measured over 24 hrs by luminescence based analysis; assay type: cell-based
[24] = target: Protein cereblon/Bromodomain-containing protein 4 (Homo sapiens) (UniProt O60885+Q96SW2); experiment: PROTAC activity at CRBN/HiBiT-tagged BRD4 in human HAP1 cells assessed as induction of BRD4 degradation measured over 24 hrs by luminescence based analysis; assay type: cell-based
[25] = target: T1, Protein cereblon/Histone acetyltransferase p300 (Homo sapiens); experiment: PROTAC activity at CRBN/HiBiT-tagged p300 in human HAP1 cells assessed as total cumulative degradation by measuring AUC at 100 nM measured over 24 hrs by luminescence based analysis; assay type: cell-based
[26] = target: T1, Protein cereblon/Histone acetyltransferase p300 (Homo sapiens); experiment: PROTAC activity at CRBN/HiBiT-tagged p300 in human HAP1 cells assessed as total cumulative degradation by measuring AUC at 0.01 nM measured over 24 hrs by luminescence based analysis; assay type: cell-based
[27] = target: T1, Protein cereblon/Histone acetyltransferase p300 (Homo sapiens); experiment: PROTAC activity at CRBN/HiBiT-tagged p300 in human HAP1 cells assessed as induction of p300 degradation by measuring degradation rate at 1000 nM measured over 24 hrs by luminescence based analysis; assay type: cell-based
[28] = target: T1, Protein cereblon/Histone acetyltransferase p300 (Homo sapiens); experiment: PROTAC activity at CRBN/HiBiT-tagged p300 in human HAP1 cells assessed as induction of p300 degradation by measuring maximal efficacy at 100 nM measured over 24 hrs by luminescence based analysis relative to control; assay type: cell-based
[29] = target: T1, Protein cereblon/Histone acetyltransferase p300 (Homo sapiens); experiment: PROTAC activity at CRBN/HiBiT-tagged p300 in human HAP1 cells assessed as induction of p300 degradation by measuring degradation rate at 1 nM measured over 24 hrs by luminescence based analysis; assay type: cell-based
[30] = target: T2, Protein cereblon/CREB-binding protein (Homo sapiens); experiment: PROTAC activity at CRBN/HiBiT-tagged CBP in human HAP1 cells assessed as induction of CBP degradation by measuring maximal efficacy at 1000 nM measured over 24 hrs by luminescence based analysis relative to control; assay type: cell-based
[31] = target: T2, Protein cereblon/CREB-binding protein (Homo sapiens); experiment: PROTAC activity at CRBN/HiBiT-tagged CBP in human HAP1 cells assessed as total cumulative degradation by measuring AUC at 10 nM measured over 24 hrs by luminescence based analysis; assay type: cell-based
[32] = target: T2, Protein cereblon/CREB-binding protein (Homo sapiens); experiment: PROTAC activity at CRBN/HiBiT-tagged CBP in human HAP1 cells assessed as induction of CBP degradation by measuring degradation rate at 1 nM measured over 24 hrs by luminescence based analysis; assay type: cell-based

T2 sequence (Q92793 2-2442 limits assumed): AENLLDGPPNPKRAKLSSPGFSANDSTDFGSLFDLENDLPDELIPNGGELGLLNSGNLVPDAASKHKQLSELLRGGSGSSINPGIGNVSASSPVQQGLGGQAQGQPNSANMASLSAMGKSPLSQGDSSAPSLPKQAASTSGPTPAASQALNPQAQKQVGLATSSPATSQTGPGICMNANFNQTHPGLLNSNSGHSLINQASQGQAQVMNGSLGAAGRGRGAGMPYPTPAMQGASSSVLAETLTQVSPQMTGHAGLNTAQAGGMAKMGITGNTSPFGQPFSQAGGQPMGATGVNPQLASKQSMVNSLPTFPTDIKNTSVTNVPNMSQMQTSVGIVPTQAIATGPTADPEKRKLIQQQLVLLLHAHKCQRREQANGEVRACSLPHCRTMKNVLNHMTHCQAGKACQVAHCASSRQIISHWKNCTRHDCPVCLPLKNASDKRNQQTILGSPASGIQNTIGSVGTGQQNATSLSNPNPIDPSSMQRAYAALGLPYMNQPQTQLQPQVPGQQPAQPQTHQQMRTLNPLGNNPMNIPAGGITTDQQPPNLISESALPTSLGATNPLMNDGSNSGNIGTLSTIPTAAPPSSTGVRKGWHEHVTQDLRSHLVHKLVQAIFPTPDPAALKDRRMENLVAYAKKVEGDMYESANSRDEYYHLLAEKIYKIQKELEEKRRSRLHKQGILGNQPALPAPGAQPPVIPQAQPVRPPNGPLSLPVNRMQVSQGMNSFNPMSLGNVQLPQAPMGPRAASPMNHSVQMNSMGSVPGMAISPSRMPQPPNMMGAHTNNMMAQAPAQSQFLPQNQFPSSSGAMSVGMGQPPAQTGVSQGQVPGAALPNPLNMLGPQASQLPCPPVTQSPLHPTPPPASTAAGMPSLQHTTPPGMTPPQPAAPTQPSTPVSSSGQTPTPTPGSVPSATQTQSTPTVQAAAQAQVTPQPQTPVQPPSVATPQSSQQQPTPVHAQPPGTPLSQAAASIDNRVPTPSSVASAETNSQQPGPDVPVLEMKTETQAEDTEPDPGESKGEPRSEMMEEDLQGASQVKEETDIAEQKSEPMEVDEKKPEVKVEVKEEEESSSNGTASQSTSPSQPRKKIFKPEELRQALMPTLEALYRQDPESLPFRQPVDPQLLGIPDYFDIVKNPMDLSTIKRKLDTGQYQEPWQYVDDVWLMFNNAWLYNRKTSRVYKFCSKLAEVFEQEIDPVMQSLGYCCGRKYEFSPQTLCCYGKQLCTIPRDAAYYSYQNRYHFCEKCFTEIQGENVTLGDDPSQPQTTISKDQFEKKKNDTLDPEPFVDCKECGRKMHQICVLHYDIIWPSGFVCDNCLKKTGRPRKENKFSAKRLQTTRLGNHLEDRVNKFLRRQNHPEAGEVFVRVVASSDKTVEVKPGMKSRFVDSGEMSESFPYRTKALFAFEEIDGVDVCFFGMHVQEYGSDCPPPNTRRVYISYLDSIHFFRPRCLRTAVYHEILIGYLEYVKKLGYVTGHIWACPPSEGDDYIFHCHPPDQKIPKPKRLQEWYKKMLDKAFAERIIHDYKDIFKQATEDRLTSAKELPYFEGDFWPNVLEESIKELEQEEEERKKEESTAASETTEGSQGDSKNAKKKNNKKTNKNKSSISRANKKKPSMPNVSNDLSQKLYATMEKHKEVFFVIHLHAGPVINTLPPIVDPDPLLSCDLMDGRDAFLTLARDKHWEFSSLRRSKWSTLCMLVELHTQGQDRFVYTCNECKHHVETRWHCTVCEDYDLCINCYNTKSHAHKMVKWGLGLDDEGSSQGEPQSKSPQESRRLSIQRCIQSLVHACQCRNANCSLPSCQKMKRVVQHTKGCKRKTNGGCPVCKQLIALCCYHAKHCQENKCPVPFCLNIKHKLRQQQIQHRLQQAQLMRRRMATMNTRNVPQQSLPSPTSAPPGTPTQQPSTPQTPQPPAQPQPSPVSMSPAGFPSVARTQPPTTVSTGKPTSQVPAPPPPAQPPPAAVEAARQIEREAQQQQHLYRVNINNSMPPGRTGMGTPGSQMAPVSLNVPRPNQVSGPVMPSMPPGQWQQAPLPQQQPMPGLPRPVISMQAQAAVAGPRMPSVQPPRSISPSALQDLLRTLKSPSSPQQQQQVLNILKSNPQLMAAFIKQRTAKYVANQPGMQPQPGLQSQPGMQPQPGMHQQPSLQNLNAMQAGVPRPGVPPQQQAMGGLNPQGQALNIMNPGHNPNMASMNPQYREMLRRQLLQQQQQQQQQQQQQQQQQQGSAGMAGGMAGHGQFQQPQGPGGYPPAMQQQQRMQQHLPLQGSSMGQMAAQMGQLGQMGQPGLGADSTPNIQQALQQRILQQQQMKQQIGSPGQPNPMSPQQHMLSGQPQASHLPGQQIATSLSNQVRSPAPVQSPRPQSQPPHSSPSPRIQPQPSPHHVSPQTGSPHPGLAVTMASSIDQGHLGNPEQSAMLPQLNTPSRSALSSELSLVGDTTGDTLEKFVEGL
T2 sequence (Q96SW2 whole entry partner): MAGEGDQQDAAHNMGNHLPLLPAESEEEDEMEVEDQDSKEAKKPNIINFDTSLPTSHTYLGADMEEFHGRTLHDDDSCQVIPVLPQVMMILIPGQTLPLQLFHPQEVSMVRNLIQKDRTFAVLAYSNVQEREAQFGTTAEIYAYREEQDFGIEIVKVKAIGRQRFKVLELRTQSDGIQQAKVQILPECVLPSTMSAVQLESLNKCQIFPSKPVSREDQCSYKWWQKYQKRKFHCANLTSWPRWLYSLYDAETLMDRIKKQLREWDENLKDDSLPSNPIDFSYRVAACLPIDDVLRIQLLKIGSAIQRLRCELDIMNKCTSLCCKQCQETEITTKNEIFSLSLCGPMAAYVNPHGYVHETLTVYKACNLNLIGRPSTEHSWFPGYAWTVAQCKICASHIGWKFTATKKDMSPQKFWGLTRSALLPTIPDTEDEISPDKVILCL
Chain of Protein cereblon/Bromodomain-containing protein 4 (Homo sapiens) (Q96SW2 whole entry, looked up, other chains not shown): as the sequence (Q96SW2 whole entry partner) above

CNC(=O)N1CCc2c(c(N3CCCc4cc(-c5cnn(C)c5)c(C(F)F)cc43)nn2C2CCN(C(=O)CCOCCOCCOCCOCCOCCOCCNc3ccc4c(c3)C(=O)N(C3CCC(=O)NC3=O)C4=O)CC2)C1 (stereo not drawn)
Activity [1]: 0.49 h⁻¹ | Emax [2]: 72% | Emax [3]: 8.6% | Emax [4]: 83% | Emax [5]: 33% | AUC [6]: 18.6 | AUC [7]: 9.3 | AUC [8]: 26.3 | Activity [9]: 0.68 h⁻¹ | Activity [10]: Active | Emax [11]: 32% | AUC [12]: 24.2 | Activity [13]: 0.42 h⁻¹ | AUC [14]: 6.6 | Emax [15]: 86% | Activity [16]: 0.79 h⁻¹ | AUC [17]: 17.8 | Activity [18]: 0.74 h⁻¹ | AUC [19]: 26.4 | Emax [20]: 68% | Activity [21]: Active | AUC [22]: 6 | AUC [23]: 4.7 | Activity [24]: inactive | AUC [25]: 5.2 | AUC [26]: 27.3 | Activity [27]: 0.46 h⁻¹ | Emax [28]: 83% | Activity [29]: 0.19 h⁻¹ | Emax [30]: 81% | AUC [31]: 8.1 | Activity [32]: 0.27 h⁻¹

CNC(=O)N1CCc2c(c(N3CCCc4cc(-c5cnn(CC(=O)NCCOCCNc6ccc7c(c6)C(=O)N(C6CCC(=O)NC6=O)C7=O)c5)c(C(F)F)cc43)nn2C2CCOCC2)C1 (stereo not drawn)
Activity [1]: 0.22 h⁻¹ | Emax [2]: 44% | Emax [4]: 65% | Emax [5]: 20% | AUC [6]: 22.6 | AUC [7]: 13.7 | AUC [8]: 24.2 | Activity [9]: 0.21 h⁻¹ | Activity [10]: Active | Emax [11]: 18% | AUC [12]: 25.5 | Activity [13]: 0.12 h⁻¹ | AUC [14]: 15.1 | Emax [15]: 63% | Activity [16]: 0.22 h⁻¹ | AUC [17]: 22.6 | Activity [18]: 0.26 h⁻¹ | AUC [19]: 27.3 | Emax [20]: 55% | Activity [21]: Active | AUC [22]: 13.5 | AUC [23]: 12.1 | Activity [24]: inactive | AUC [25]: 10.4 | AUC [26]: 25.7 | Activity [27]: 0.14 h⁻¹ | Emax [28]: 69% | Activity [29]: 0.004 h⁻¹ | Emax [30]: 59% | AUC [31]: 16 | Activity [32]: 1.5 10^-4/hr
